# Data taken from patent US20240116857A1 (St. Louis University, priority 2022, published 2024).
# System: E. coli BW25113
# Assay: MIC, 2-fold broth dilution, E. coli BW25113
# Type: cell-based, Escherichia coli
# Details: Escherichia coli; E. coli BW25113; asterisk in column 1-10; read-out: MIC, μM 1-10
row,Compound,MIC
1,C[N+](C)(C)c1ccc(NC(=O)c2ccc(-c3ccc(C(=O)Nc4ccc([N+](C)(C)C)c(N)c4)cc3C#N)cc2)cc1 [Example 153],1 to 10 µM
2,CCCCCCCCc1cn(CCOCCOCCOCCNC(=O)CCCC[C@H]2SC[C@H]3NC(=O)N[C@H]32)nn1 [Example 142],1 to 10 µM
3,COc1cc(NC(=O)c2ccc(-c3ccc(C(=O)Nc4ccc(N5CCCCC5)cc4)cc3)cc2)ccc1N(C)C [Example 128],1 to 10 µM
4,"C#CC[N+](C)(C)c1ccc(NC(=O)c2ccc(-c3ccc(C(=O)Nc4ccc([N+](C)(C)C)c(F)c4)cc3)cc2)cc1F [Example 94, 4-(4′-((4-(dimethyl(prop-2-yn-1-yl)ammonio)-3-fluorophenyl)carbamoyl)-[1,1′-biphenyl]-4-carboxamido)-2-fluoro-N,N,N-trimethylbenzenaminium]",1 to 10 µM
5,"C[n+]1ccc(Nc2ccc(NC(=O)c3ccc(Cc4ccc(C(=O)Nc5ccc(Nc6cc[n+](C)cc6)cc5)cc4)cc3)cc2)cc1 [Example 52, 4,4′-((((4,4′-methylenebis(benzoyl))bis(azanediyl))bis(4,1-phenylene))bis(azanediyl))bis(1-methylpyridin-1-ium)]",1 to 10 µM

# Same assay, conditions: Escherichia coli; E. coli BW25113; asterisk in column 10-50; read-out: MIC, μM 10-50
row,Compound,MIC
1,"C[n+]1ccc(NC(=O)c2ccc(C(=O)Nc3ccc(Nc4cc[n+](C)cc4)c(F)c3)cc2)cc1 [Example 66, 1-methyl-4-(4-((3-fluoro-4-((1-methylpyridin-1-ium-4-yl)amino)phenyl)carbamoyl)benzamido)pyridin-1-ium]",10 to 50 µM

# Same assay, conditions: Escherichia coli; E. coli BW25113; asterisk in column >50; read-out: MIC, μM >50
row,Compound,MIC
1,"Cc1cc(C(=O)Nc2ccc(N(C)C)c(F)c2)ccc1-c1ccc(C(=O)Nc2ccc(N(C)C)c(F)c2)cc1 [Example 90, N^4,N^4′-bis(4-(dimethylamino)-3-fluorophenyl)-2-methyl-[1,1′-biphenyl]-4,4′-dicarboxamide]",> 50 µM
2,C[N+](C)(C)c1ccc(NC(=O)c2ccc(-c3ccc(C(=O)Nc4ccc([N+](C)(C)C)c([N+](=O)[O-])c4)cc3)c(S(C)(=O)=O)c2)cc1 [Example 146],> 50 µM
3,"O=C(Nc1ccc(Nc2ccncc2)cc1)c1ccc(C(=O)Nc2ccc(Nc3ccncc3)cc2)nc1 [Example 79, N^2,N^5-bis(4-(pyridin-4-ylamino)phenyl)pyridine-2,5-dicarboxamide]",> 50 µM
4,"C[n+]1ccc(NC(=O)c2ccc3cc(C(=O)Nc4cc[n+](C)cc4)ccc3c2)cc1 [Example 4, 4,4′-((naphthalene-2,6-dicarbonyl)bis(azanediyl))bis(1-methylpyridin-1-ium)]",> 50 µM
5,"CN(C)c1ccc(NC(=O)c2ccc(-c3ccc(C(=O)Nc4ccc(N(C)C)c(F)c4)cc3)cc2)cc1F [Example 75, N^4,N^4′-bis(4-(dimethylamino)-3-fluorophenyl)-[1,1′-biphenyl]-4,4′-dicarboxamide]",> 50 µM
6,"O=C(Nc1ccncc1)c1ccc(C(=O)Nc2ccncc2)cc1 [Example 1, N^1,N^4-di(pyridin-4-yl)terephthalamide]",> 50 µM
7,C[N+](C)(C)c1ccc(NC(=O)c2ccc(-c3ccc(C(=O)Nc4ccc([N+](C)(C)C)c(Cl)c4)cc3)cc2)cc1F [Example 131],> 50 µM
8,"C[n+]1ccc(Nc2ccc(NC(=O)C3CCC(C(=O)Nc4ccc(Nc5cc[n+](C)cc5)cc4)CC3)cc2)cc1 (centres unmarked) [Example 69, 4,4′-((((E)-cyclohexanedicarbonylbis(azanediyl))bis(4,1-phenylene))bis(azanediyl))bis(1-methylpyridin-1-ium)]",> 50 µM
9,"CN(C)c1ccc(NC(=O)c2ccnc(-c3cc(C(=O)Nc4ccc(N(C)C)cc4)ccn3)c2)cc1 [Example 76, N^4,N^4′-bis(4-(dimethylamino)phenyl)-[2,2′-bipyridine]-4,4′-dicarboxamide]",> 50 µM
10,"CN(C)c1ccc(NC(=O)c2ccc(-c3ccc(C(=O)Nc4ccc(N(C)C)cc4)cc3)cc2)cc1 [Example 22, N^4,N^4′-bis(4-(dimethylamino)phenyl)-[1,1′-biphenyl]-4,4′-dicarboxamide]",> 50 µM
11,"Cc1cc(Nc2cc[n+](C)cc2)ccc1NC(=O)c1ccc(C(=O)Nc2cc[n+](C)cc2)cc1 [Example 67, 1-methyl-4-(4-((2-methyl-4-((1-methylpyridin-1-ium-4-yl)amino)phenyl)carbamoyl)benzamido)pyridin-1-ium]",> 50 µM
12,"C[n+]1ccc(CNC(=O)c2ccc(-c3ccc(C(=O)NCc4cc[n+](C)cc4)cc3)cc2)cc1 [Example 100, 4,4′-((([1,1′-biphenyl]-4,4′-dicarbonyl)bis(azanediyl))bis(methylene))bis(1-methylpyridin-1-ium)]",> 50 µM
13,"CN(C)C1CCC(NC(=O)c2ccc(-c3ccc(C(=O)NC4CCC(N(C)C)CC4)cc3)cc2)CC1 (centres unmarked) [Example 46, N^4,N^4′-bis(4-(dimethylamino)cyclohexyl)-[1,1′-biphenyl]-4,4′-dicarboxamide]",> 50 µM
14,C[N+](C)(C)c1ccc(NC(=O)c2ccc(-c3ccc(C(=O)Nc4ccc([N+](C)(C)C)c(C#N)c4)cc3C#N)cc2)cc1 [Example 150],> 50 µM
15,CN(C)c1ccc(NC(=O)c2ccc(-c3ccc(C(=O)Nc4ccc([N+](C)(C)C)c(F)c4)cc3)cc2)cc1F [Example 125],> 50 µM
16,"O=C(Nc1ccc(Oc2ccncc2)cc1)c1ccc(C(=O)Nc2ccc(Oc3ccncc3)cc2)c([N+](=O)[O-])c1 [Example 83, 2-nitro-N^1,N^4-bis(4-(pyridin-4-yloxy)phenyl)terephthalamide]",> 50 µM
17,"CN(C)c1ccc(NC(=O)c2ccc(-c3ccc(C(=O)Nc4ccc(N(C)C)c(Cl)c4)cc3)cc2)cc1Cl [Example 38, N^4,N^4′-bis(3-chloro-4-(dimethylamino)phenyl)-[1,1′-biphenyl]-4,4′-dicarboxamide]",> 50 µM
18,"C[n+]1ccc(NC(=O)[C@H]2CC[C@H](C(=O)Nc3cc[n+](C)cc3)CC2)cc1 [Example 6, 4,4′-((E)-cyclohexanedicarbonylbis(azanediyl))bis(1-methylpyridin-1-ium)]",> 50 µM
19,CN(C)c1ccc(NC(=O)c2ccc(-c3ccc(C(=O)Nc4ccc(N5CCCCC5)cc4)cc3)cc2)cc1F [Example 111],> 50 µM
20,COc1cc([N+](C)(C)C)ccc1NC(=O)c1ccc(-c2ccc(C(=O)Nc3ccc([N+](C)(C)C)cc3OC)cc2)cc1 [Example 32],> 50 µM
21,C#CCCCCN(C)c1ccc(NC(=O)c2ccc(-c3ccc(C(=O)Nc4ccc(N(C)C)c(F)c4)cc3)cc2)cc1F [Example 126],> 50 µM
22,C[N+](C)(C)c1ccc(NC(=O)c2ccc(-c3ccc(C(=O)Nc4ccc([N+](C)(C)C)c(OCCCCc5cn(CCOCCOCCOCCNC(=O)CCCC[C@@H]6SC[C@@H]7NC(=O)N[C@@H]76)nn5)c4)cc3)cc2)cc1F [Example 136],> 50 µM
23,"O=C(Nc1ccc(Nc2ccccn2)cc1)c1ccc(C(=O)Nc2ccc(Nc3ccccn3)cc2)cc1 [Example 10, N^1,N^4-bis(4-(pyridin-2-ylamino)phenyl)terephthalamide]",> 50 µM
24,"C[N+](C)(C)c1ccc(NC(=O)c2ccnc(-c3cc(C(=O)Nc4ccc([N+](C)(C)C)cc4)ccn3)c2)cc1 [Example 78, 4,4′-(([2,2′-bipyridine]-4,4′-dicarbonyl)bis(azanediyl))bis(N,N,N-trimethylbenzenaminium)]",> 50 µM
25,"O=C(Nc1ccc(-c2ccc(NC(=O)c3ccncc3)cc2)cc1)c1ccncc1 [Example 81, N,N′-([1,1′-biphenyl]-4,4′-diyl)diisonicotinamide]",> 50 µM
26,C#CCN(C)c1ccc(NC(=O)c2ccc(-c3ccc(C(=O)Nc4ccc([N+](C)(C)C)c(F)c4)cc3)cc2)cc1F [Example 104],> 50 µM
